In publication PMC12528394, “Screening and evaluation of therapeutic candidates with vascular protective effects in zebrafish models of diabetic retinopathy” (Scientific Reports, 2025):

Tests used:
Assay type in all cases: in vivo
zebrafish DR model = assay: Zebrafish diabetic retinopathy model (130 mM glucose): survival and hyaloid-retinal vessel diameter; details: 100 µg/ml, 3 to 6 dpf, n = 40 per group
Protocol: On day 3 post-fertilization, zebrafish embryos with normal differentiation were treated with 130 mM glucose in a 24-well plate (5 embryos per well) to induce a diabetic retinopathy model. Peptides 1, 2, and 3 were administered at concentrations of 20, 100, 200, and 400 µg/ml. On day 6 post-fertilization, embryos were fixed with 4% paraformaldehyde and the hyaloid-retina vessels were isolated. Further experimental details can be found in previous studies.

VEGF = assay: RT-PCR mRNA expression in zebrafish DR model; details: 100 µg/ml, 130 mM glucose, eyes at 6 dpf, RT-PCR normalized to GAPDH, triplicate
Protocol: (§1) The total RNA were extracted from the eyes at 6 dpf using the mRNA kit (PureLink™ RNA Mini Kit, Ambion). The mRNA was measured with a NanoDrop spectrophotometer (Thermo Scientific, Madison, WI, USA) for quantitative analysis and a cDNA synthesis with a SuperScript VILO cDNA Synthesis Kit (Thermo Scientific, Carlsbad, CA, USA). The cDNA was amplified by PCR with zebrafish primer GAPDH, VEGF, Tie2 and Ang-1 with SYBR Green Master Mix (Thermo Scientific, Carlsbad, CA, USA). The mRNA was detected by ViiA7 Real-Time PCR system (Thermo Scientific, Carlsbad, CA, USA). The values were normalized to GAPDH expression. Samples were analyzed in triplicate.

Tie2 = assay: RT-PCR mRNA expression in zebrafish DR model; details: 100 µg/ml, 130 mM glucose, eyes at 6 dpf, RT-PCR normalized to GAPDH, triplicate
Protocol: as §1

Angiopoietin-1 = assay: RT-PCR mRNA expression in zebrafish DR model; details: 100 µg/ml, 130 mM glucose, eyes at 6 dpf, RT-PCR normalized to GAPDH, triplicate
Protocol: as §1

aflibercept
retinal vessel thickness relative to glucose-only group (in words) (zebrafish DR model): effectively reduced
VEGF mRNA level versus high-glucose group (in words) (VEGF): significantly reduced
Tie2 mRNA level versus high-glucose group (in words) (Tie2): partially restored
Angiopoietin-1 mRNA level versus high-glucose group (in words) (Angiopoietin-1): partially restored
